According to patent US7468359B2, “Compositions comprising oxophosphonate-based metalloproteinase inhibitors” (Yissum Research Develpment Company of the Hebrew University …, priority 1999, dated 2008):
Read-outs that look alike come from different tables or passages of the source.

How the values were obtained:
cancer cells = experiment: Matrigel chemoinvasion assay in Boyden chambers; assay type: cell-based; settings: for inhibition at 50 µM: read-out: % Inhibition of Chemoinvasion 50 uM
MMP2 = target: T1, MMP2 (Homo sapiens, UniProt P08253); experiment: Activity on pure MMP2 enzyme; assay type: biochemical
T1 sequence (P08253 110-660): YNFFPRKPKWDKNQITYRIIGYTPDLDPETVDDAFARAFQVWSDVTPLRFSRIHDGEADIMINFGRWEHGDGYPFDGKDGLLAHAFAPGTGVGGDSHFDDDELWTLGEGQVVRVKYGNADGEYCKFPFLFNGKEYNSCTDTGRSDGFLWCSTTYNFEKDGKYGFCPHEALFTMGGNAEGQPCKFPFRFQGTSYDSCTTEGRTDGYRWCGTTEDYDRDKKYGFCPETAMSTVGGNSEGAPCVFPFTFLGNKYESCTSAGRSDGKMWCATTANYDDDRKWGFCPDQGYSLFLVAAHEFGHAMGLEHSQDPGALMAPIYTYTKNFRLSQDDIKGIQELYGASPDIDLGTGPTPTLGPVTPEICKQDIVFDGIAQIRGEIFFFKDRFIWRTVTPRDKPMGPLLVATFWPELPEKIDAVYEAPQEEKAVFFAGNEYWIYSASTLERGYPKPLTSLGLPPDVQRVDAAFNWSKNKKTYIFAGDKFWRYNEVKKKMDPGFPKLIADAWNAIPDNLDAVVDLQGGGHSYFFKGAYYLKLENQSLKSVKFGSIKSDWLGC

murine melanoma = experiment: Metastasis formation in the murine melanoma model; assay type: in vivo, mice; settings: 50 mg/kg daily injections for 21 d, lung tumors counted, vs untreated animals
Endothelial cells = experiment: Endothelial cell tube formation (capillary formation); assay type: cell-based

Compound: CNC(=O)[C@H](Cc1ccccc1)NC(=O)[C@H](CC(C)C)[C@H](CSc1cccs1)C(=O)NO [Batimastat, reference compound]
- inhibition at 50 µM (cancer cells): 40%

Compound: CCOC([O-])[PH](=O)C(=O)N(C)O.[Na+] (stereo not shown) [Compound 1]
- Activity (cancer cells): ++ (key: ++++: active at submicromolar concen-tration; +++: active at 1-10 μM; ++: active at 50-100 μM; +: active at 100 μM; −: not active at 100 μM)

Compound: O=C(OCc1ccccc1)P(=O)([O-])O.[Na+] [Compound 5]
- Activity (cancer cells): ++ (key: ++++: active at submicromolar concen-tration; +++: active at 1-10 μM; ++: active at 50-100 μM; +: active at 100 μM; −: not active at 100 μM)

Compound: O=C(c1ccccc1)P(=O)([O-])O.[Na+] [Compound 7]
- Activity (cancer cells): ++ (key: ++++: active at submicromolar concen-tration; +++: active at 1-10 μM; ++: active at 50-100 μM; +: active at 100 μM; −: not active at 100 μM)

Compound: O=C(c1ccc(Cl)cc1)P(=O)([O-])[O-].[Na+].[Na+] [Compound 8, p-chlorobenzoylphosphonic acid sodium salt]
- Activity (cancer cells): +++ (key: ++++: active at submicromolar concen-tration; +++: active at 1-10 μM; ++: active at 50-100 μM; +: active at 100 μM; −: not active at 100 μM)
- MMP inhibiting activity (cancer cells): considerable MMP inhibiting activity

Compound: CCC(=O)P(=O)([O-])O.[Na+] [Compound 10]
- Activity (cancer cells): + (key: ++++: active at submicromolar concen-tration; +++: active at 1-10 μM; ++: active at 50-100 μM; +: active at 100 μM; −: not active at 100 μM)

Compound: CCC(=O)P(=O)([O-])OC.[Na+] [Compound 11]
- Activity (cancer cells): + (key: ++++: active at submicromolar concen-tration; +++: active at 1-10 μM; ++: active at 50-100 μM; +: active at 100 μM; −: not active at 100 μM)

Compound: O=C(Cc1ccccc1)P(=O)([O-])O.[Na+] [Compound 12]
- Activity (cancer cells): + (key: ++++: active at submicromolar concen-tration; +++: active at 1-10 μM; ++: active at 50-100 μM; +: active at 100 μM; −: not active at 100 μM)

Compound: COP(=O)([O-])C(=O)Cc1ccccc1.[Na+] [Compound 13]
- Activity (cancer cells): ++ (key: ++++: active at submicromolar concen-tration; +++: active at 1-10 μM; ++: active at 50-100 μM; +: active at 100 μM; −: not active at 100 μM)

Compound: CCC(=NO)P(=O)([O-])OC.[Li+] [Compound 14]
- Activity (cancer cells): + (key: ++++: active at submicromolar concen-tration; +++: active at 1-10 μM; ++: active at 50-100 μM; +: active at 100 μM; −: not active at 100 μM)

Compound: O=C(NCc1ccccc1)P(=O)([O-])O.[Na+] [Compound 16]
- Activity (cancer cells): ++ (key: ++++: active at submicromolar concen-tration; +++: active at 1-10 μM; ++: active at 50-100 μM; +: active at 100 μM; −: not active at 100 μM)

Compound: O=C(NCCc1ccccc1)P(=O)([O-])O.[Na+] [Compound 17]
- Activity (cancer cells; preliminary screening, invasion/chemotaxis chambers vs untreated preparations): + (active at 100 μM)

Compound: CCCCNC(=O)P(=O)([O-])O.[Na+] [Compound 23]
- Activity (cancer cells): + (key: ++++: active at submicromolar concen-tration; +++: active at 1-10 μM; ++: active at 50-100 μM; +: active at 100 μM; −: not active at 100 μM)

Compound: CN(C)CCNC(=O)P(=O)(O)O [Compound 26, N-(2-dimethylaminoethyl)phosphonoformamide Betaine]
- Activity (cancer cells): ++++ (key: ++++: active at submicromolar concen-tration; +++: active at 1-10 μM; ++: active at 50-100 μM; +: active at 100 μM; −: not active at 100 μM)
- inhibition at 50 µM (cancer cells): 66%
- IC50 (MMP2): 0.025 µM
- % Inhibition of Metastasis Formation 50 mg/kg for 21 d (murine melanoma): 73%
- inhibition at 50 µM (Endothelial cells; Endothelial cell, read-out: % Inhibition of Capillary Formation 50 µM): 75%

Compound: O=C(NC1CCCCC1)P(=O)(O)O [Compound 33]
- Activity (cancer cells): ++++ (key: ++++: active at submicromolar concen-tration; +++: active at 1-10 μM; ++: active at 50-100 μM; +: active at 100 μM; −: not active at 100 μM)

Compound: O=P([O-])([O-])Cc1ccc(Cl)cc1.[Na+].[Na+] [Compound 38, p-chlorobenzylphosphonic acid sodium salt, reference compound]
- Activity (cancer cells): − (key: ++++: active at submicromolar concen-tration; +++: active at 1-10 μM; ++: active at 50-100 μM; +: active at 100 μM; −: not active at 100 μM)
- MMP inhibiting activity (cancer cells): completely devoid of inhibitory activity

Compound: O=C(NC1CCCCC1)P(=O)(O)O [Example 5, Hydrogen Sodium N-cyclohexylcarbamoylphosphonate]
- concentration at which active in the Boyden chamber chemoinvasion assay (cancer cells): 1 µM
- IC50 (MMP2): 0.08 µM

Compound: O=C(NCCN1CCOCC1)P(=O)(O)O [Example 7, N-(2-[4-morpholino]ethyl)phosphonoformamide Betaine]
- concentration at which active in the Boyden chamber chemoinvasion assay (cancer cells): 100 µM

Compound: O=C(NCCN1CCCCC1)P(=O)(O)O [Example 8, N-(2-[1-piperidino]ethyl)phosphonoformamide Betaine]
- concentration at which active in the Boyden chamber chemoinvasion assay (cancer cells): 100 µM

Compound: O=C(NCCN1CCCC1)P(=O)(O)O [Example 9, N-(2-[1-pyrrolidino]ethyl)phosphonoformamide Betaine]
- concentration at which active in the Boyden chamber chemoinvasion assay (cancer cells): 100 µM

Compound: CC(=O)NCCNC(=O)P(=O)(O)O [Example 10, N-(2-acetamidoethyl)phosphonoformamide]
- concentration at which active in the Boyden chamber chemoinvasion assay (cancer cells): 100 µM

Compound: O=C(NCCc1c[nH]cn1)P(=O)(O)O [Example 15, Phosphonoformylhistamine]
- % Inhibition of Chemoinvasion 50 uM (cancer cells): 15%

Compound: O=C(NC1CCCC1)P(=O)(O)O [Example 16, N-cyclopentylcarbamoylphosphonic Acid]
- % Inhibition of Chemoinvasion 50 uM (cancer cells; 50 uM): 65%
- % Inhibition of Metastasis Formation 50 mg/kg for 21 d (murine melanoma): 70%
- % Inhibition of Capillary Formation 50 UM (Endothelial cells): 70%

Compound: O=C(NCCSCc1ccccc1)P(=O)(O)O [Example 17, N-(S-benzylmercaptoethyl)carbamoylphosphonic Acid]
- % Inhibition of Chemoinvasion 50 uM (cancer cells; 50 uM): 61%
- % Inhibition of Capillary Formation 50 UM (Endothelial cells): 58%

Compound: CNC(=O)[C@@H](NC(=O)[C@H](CC(C)C)NC(=O)P(=O)(O)O)C(C)C [Example 18, Phosphonoformyl-Leu-Val-NHMe]
- % Inhibition of Chemoinvasion 50 uM (cancer cells; 50 uM): 38%
- % Inhibition of Capillary Formation 50 UM (Endothelial cells): 42%

Compound: CNC(=O)[C@H](Cc1ccccc1)NC(=O)[C@H](CC(C)C)NC(=O)P(=O)(O)O [Example 19, Phosphonoformyl-Leu-Phe-NHMe]
- % Inhibition of Chemoinvasion 50 uM (cancer cells): 55%
- % Inhibition of Capillary Formation 50 UM (Endothelial cells): 60%

Compound: CNC(=O)[C@H](Cc1ccc(OC)cc1)NC(=O)[C@H](CC(C)C)NC(=O)P(=O)(O)O [Example 20, Phosphonoformyl-Leu-Tyr(Me)-NHMe]
- % Inhibition of Chemoinvasion 50 uM (cancer cells; 50 uM): 39%
- % Inhibition of Metastasis Formation 50 mg/kg for 21 d (murine melanoma): 75%
- % Inhibition of Capillary Formation 50 UM (Endothelial cells): 38%

Compound: CNC(=O)C(NC(=O)C(Cc1ccccc1)NC(=O)P(=O)(O)O)C(C)C (stereo not drawn) [Example 21, Phosphonoformyl-Phe-Val-CONHMe]
- % Inhibition of Chemoinvasion 50 uM (cancer cells; 50 uM): 41%

Compound: CNC(=O)[C@H](Cc1ccc(OC)cc1)NC(=O)[C@@H](CC(=O)NO)CC(C)C [SC-44463, reference compound]
- % Inhibition of Metastasis Formation 50 mg/kg for 21 d (murine melanoma): 70-75%
